Laboratory results: ChEMBL document CHEMBL5543072, “Discovery of a novel lead characterized by a stilbene-extended scaffold against sepsis as soluble epoxide hydrolase inhibitors” (Eur J Med Chem, 2024)
pIC50: −log10 of the molar value.

Assays:
Mus musculus [1] = experiment: Protection against LPS-induced sepsis in C57BL/6J mouse model assessed as survival rate at 5 mg/kg, iv measured after 48 hrs relative to control; type: functional
Mus musculus [2] = experiment: Protection against LPS-induced sepsis in C57BL/6J mouse model assessed as survival rate at 0.5 mg/kg, iv measured after 24 hrs relative to control; type: functional
[3] = Apparent volume of distribution in Sprague-Dawley rat at 20 mg/kg, po measured after 24 hrs; type: ADME, organism-based; conditions: in vivo
Mus musculus [4] = experiment: Protection against LPS-induced sepsis in C57BL/6J mouse model assessed as survival rate at 0.05 mg/kg, iv measured after 48 hrs relative to control; type: functional
[5] = Cmax in Sprague-Dawley rat at 20 mg/kg, po measured after 24 hrs; type: ADME, organism-based; conditions: in vivo
[6] = molecular target: T1, Bifunctional epoxide hydrolase 2 (Mus musculus, UniProt P34914)
T1 sequence (P34914 whole entry): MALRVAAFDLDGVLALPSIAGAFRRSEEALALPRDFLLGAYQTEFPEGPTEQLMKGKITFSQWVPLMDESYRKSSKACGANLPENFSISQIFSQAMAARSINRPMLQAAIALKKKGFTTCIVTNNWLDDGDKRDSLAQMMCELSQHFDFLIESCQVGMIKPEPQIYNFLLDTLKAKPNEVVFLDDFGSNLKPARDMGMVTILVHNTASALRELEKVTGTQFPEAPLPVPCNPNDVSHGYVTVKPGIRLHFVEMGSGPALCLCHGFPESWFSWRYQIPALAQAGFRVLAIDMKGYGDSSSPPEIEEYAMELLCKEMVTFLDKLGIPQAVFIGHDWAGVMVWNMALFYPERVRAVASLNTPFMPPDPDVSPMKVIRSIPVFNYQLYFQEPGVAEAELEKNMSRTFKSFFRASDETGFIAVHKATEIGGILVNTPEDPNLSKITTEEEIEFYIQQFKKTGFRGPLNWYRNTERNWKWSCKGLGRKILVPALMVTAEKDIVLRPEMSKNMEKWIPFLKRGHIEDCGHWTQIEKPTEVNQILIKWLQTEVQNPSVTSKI

[7] = Cmax in Sprague-Dawley rat at 5 mg/kg, iv measured after 24 hrs; type: ADME, organism-based; conditions: in vivo
in vivo = conditions: C57BL/6J, mouse, other tissue, ip, 5 mg/kg
Description: Ratio of Cmax in C57BL/6J mouse liver to blood at 5 mg/kg, ip measured after 24 hrs by LC-MS/MS analysis

[8] = Cytotoxicity against human HepG2 cells assessed as cell viability at 50 uM incubated for 48 hrs by CCK8 assay relative to control; type: toxicity, cell-based; conditions: read-out: Activity
[9] = Cmax in C57BL/6J mouse blood at 5 mg/kg, ip measured after 24 hrs by LC-MS/MS analysis; type: ADME, organism-based
[10] = AUC (0 to 24 hrs) in Sprague-Dawley rat at 20 mg/kg, po measured after 24 hrs; type: ADME, organism-based; conditions: in vivo
Mus musculus [11] = experiment: Protection against LPS-induced sepsis in C57BL/6J mouse model assessed as survival rate at 0.5 mg/kg, iv measured after 48 hrs relative to control; type: functional
Mus musculus [12] = experiment: Protection against LPS-induced sepsis in C57BL/6J mouse model assessed as survival rate at 30 mg/kg, iv measured after 24 hrs relative to control; type: functional
[13] = Half-life in Sprague-Dawley rat at 20 mg/kg, po measured after 24 hrs; type: ADME, organism-based; conditions: in vivo
Mus musculus [14] = experiment: Protection against LPS-induced sepsis in C57BL/6J mouse model assessed as survival rate at 5 mg/kg, iv measured after 72 hrs relative to control; type: functional

## O=C(Cc1ccccn1)Nc1cccc(/C=C/c2ccc(NC(=O)NCC3CCOCC3)cc2)c1
Mus musculus [1]
  survival at 5 mg/kg: 40%
Mus musculus [2]
  survival at 0.5 mg/kg: 50%
[3]
  Vz: 4132.531 L/kg
Mus musculus [4]
  survival at 0.05 mg/kg: 10%
[5]
  Cmax: 28.2 ng/mL
[6]
  pIC50: 8.40
[7]
  Cmax: 660 ng/mL
In vivo
  Kp at 24 h: 7.6
[8]
  viability at 48 h, 50 µM: 46.5%
[9]
  Cmax: 330 ng/mL
[10]
  AUC: 48 ng·h/mL
Mus musculus [11]
  survival at 0.5 mg/kg: 40%
Mus musculus [12]
  survival at 30 mg/kg: 60%
[13]
  half-life: 2.19 h
Mus musculus [14]
  survival at 5 mg/kg: 40%
